In PubChem BioAssay (NCI):
“And” between values parts separate entries of the source, which are not always exact repeats. Equal values may be shown once.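 Values below derive from 48-hour exposures of cells grown in 96-well plates, with endpoints linearly interpolated between the two concentrations bracketing the appropriate inhibition level. Abbreviation: GI50, concentration required for 50% inhibition of growth. TGI denotes the concentration required for complete inhibition of growth.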

Key:
Test in all cases: DTP human tumour cell line panel, 48 h
HCT-15 colon = tested on: HCT-15 colon
MOLT-4 leukemia = tested on: MOLT-4 leukemia
UACC-257 melanoma = tested on: UACC-257 melanoma
TK-10 renal = tested on: TK-10 renal
OVCAR-8 ovarian = tested on: OVCAR-8 ovarian
CCRF-CEM leukemia = tested on: CCRF-CEM leukemia
SK-MEL-2 melanoma = tested on: SK-MEL-2 melanoma
HCC-2998 colon = tested on: HCC-2998 colon
SF-295 CNS = tested on: SF-295 CNS
UACC-62 melanoma = tested on: UACC-62 melanoma

Row | Structure (SMILES) | GI50 (HCT-15 colon) | TGI (HCT-15 colon) | GI50 (MOLT-4 leukemia) | TGI (MOLT-4 leukemia) | GI50 (UACC-257 melanoma) | TGI (UACC-257 melanoma) | GI50 (TK-10 renal) | TGI (TK-10 renal) | GI50 (OVCAR-8 ovarian) | TGI (OVCAR-8 ovarian) | GI50 (CCRF-CEM leukemia) | TGI (CCRF-CEM leukemia) | GI50 (SK-MEL-2 melanoma) | TGI (SK-MEL-2 melanoma) | GI50 (HCC-2998 colon) | TGI (HCC-2998 colon) [µM] | GI50 (SF-295 CNS) | TGI (SF-295 CNS) | GI50 (UACC-62 melanoma) | TGI (UACC-62 melanoma)
1 | C=CCn1c2ccccc2c2c3c(c4c5ccccc5n(CC=C)c4c21)C(=O)N(O)C3=O | 3.18 µM | 17 µM | 1.02 µM | 5.12 µM | 13.5 µM | 54.6 µM | 6.16 µM | 35.7 µM | 4.41 µM | 28.3 µM | 0.971 µM | 7.1 µM | 13 µM | 46.1 µM | 4.94 µM | 34 | 2.62 µM | 8.62 µM | 1.74 µM | 10.5 µM
2 | COC(=O)c1c(O)ccc(O)c1C(C(C)=O)C(C)=O |  | > 100 µM |  | > 100 µM |  | > 100 µM |  | > 100 µM |  | > 100 µM |  | > 100 µM |  | > 100 µM |  | > 100 |  | > 100 µM |  | > 100 µM
3 | Cc1ccc(N)cc1[As]=[As]c1cc(N)ccc1C (stereo not given) | 0.75 µM | 2.24 µM | 1.94 µM | 8.82 µM | 1.25 µM | 2.54 µM | 1.47 µM | 2.81 µM | 1.57 µM | 2.98 µM | 0.298 µM | 2.36 µM | 1.97 µM | 3.54 µM | 1.93 µM | 3.58 | 4.6 µM | 12.3 µM | 1.51 µM | 3 µM
4 | C[P+]1(Cc2ccccc2)CCCC1 |  | > 100 µM |  | > 100 µM |  | > 100 µM |  | > 100 µM |  | > 100 µM |  | > 100 µM |  | > 100 µM |  | > 100 |  | > 100 µM |  | > 100 µM
5 | c1ccc(-c2[nH]ncc2-c2ccnc(-c3ccc(OCCN4CCOCC4)cc3)c2)nc1 | > 25 µM | > 25 µM | > 25 µM | > 25 µM | > 25 µM | > 25 µM | > 25 µM | > 25 µM | > 25 µM | > 25 µM | > 25 µM | > 25 µM | > 25 µM | > 25 µM | > 25 µM | > 25 | > 25 µM | > 25 µM | > 25 µM | > 25 µM
6 | COc1ccc(OC)c(Nc2nc3nonc3nc2Nc2cccc(Br)c2)c1 | 0.756 µM | > 100 µM | 0.809 µM | 12.1 µM | 0.508 µM | 7.37 µM | 0.988 µM | 16.5 µM | 1.02 µM | > 100 µM | 0.608 µM | 17.2 µM | 0.509 µM | 3.84 µM | 0.818 µM | > 100 | 0.429 µM | 3.29 µM | 0.301 µM | 14.1 µM
7 | O=C(O)CCC(c1ccccc1)(c1ccccc1)c1ccccc1 |  | > 100 µM |  | > 92.2 µM |  | > 100 µM |  | > 100 µM |  | > 100 µM |  | > 100 µM |  | > 84 µM |  | > 100 |  | > 100 µM |  | > 100 µM
8 | C[C@]12CC[C@H](O[C@@H]3O[C@H](CO[C@@H]4O[C@H](CO)[C@@H](O)[C@H](O)[C@H]4O)[C@@H](O)[C@H](O)[C@H]3O)C[C@@H]1CC[C@@H]1[C@@H]2CC[C@]2(C)[C@@H](C3=CC(=O)OC3)CC[C@]12O |  | 42.9 µM |  | > 41 µM |  | > 73.3 µM |  | > 51.6 µM |  | 96.9 µM |  | > 100 µM |  | > 94 µM |  | 51 |  | > 31.6 µM |  | > 80.4 µM
9 | CC[C@@H](C)/C=C(C)/C=C/C(=O)c1c(O)c(-c2ccc(OC(=O)[C@@]34CC[C@@](C)(C(=O)O3)C4(C)C)cc2)cn(O)c1=O | 1.17 µM | > 50 µM | 1.04 µM | > 50 µM | 1.8 µM | 36 µM | 1.99 µM | > 50 µM | 1.76 µM | > 50 µM | 1.12 µM | > 50 µM | 15.6 µM | > 50 µM | 3.65 µM | > 50 | 1.99 µM | 26.9 µM | 1.16 µM | 2.7 µM
10 | C#C[C@@]1(O)[C@@H](CO)O[C@@H](n2cc(Br)c3c(Cl)ccnc32)[C@@H]1O | 0.55 µM | > 100 µM | 0.324 µM | 3.05 µM | > 100 µM | > 100 µM | > 67 µM | > 100 µM | 0.343 µM | 1.91 µM | 0.386 µM | > 100 µM | 35.2 µM | > 100 µM | 2.89 µM | > 100 | 1.03 µM | > 100 µM | 15.6 µM | > 100 µM
11 | O/N=C(\CC(O)(C(F)(F)F)C(F)(F)F)c1cccs1 |  | > 10 µM |  | > 10 µM |  | > 10 µM |  | > 10 µM |  | > 10 µM |  | > 10 µM |  | > 10 µM |  | > 10 |  | > 10 µM |  | > 10 µM
12 | Cc1cc(O)ccc1C1=NN(c2ccc(S(N)(=O)=O)cc2)C(=O)CC1 | 2.67 µM and 4.2 µM | 50 µM and > 100 µM | 2.67 µM and 6.09 µM | 50 µM and > 100 µM | 31.3 µM and > 100 µM | 50 µM and > 100 µM | > 50 µM and 15.9 µM | > 50 µM and 52.7 µM | 15.4 µM and 46.2 µM | 50 µM and > 100 µM | 9.88 µM and 10.5 µM | 50 µM and > 100 µM | 16.8 µM and 10.4 µM | 50 µM and 77.7 µM | > 50 µM and 63.9 µM | > 100 | 2.21 µM and 4.82 µM | 34.7 µM and 24.3 µM | 2.74 µM and 3.68 µM | 50 µM and > 100 µM
13 | Oc1ccc2c(=S)cc(-c3ccc(Br)cc3)oc2c1O | 0.853 µM | 12.1 µM | 2.16 µM | 6.77 µM | 2.88 µM | 8.25 µM | 4.16 µM | 14.7 µM | 2.28 µM | 8.92 µM | 2.53 µM | 8.03 µM | 2.27 µM | 6.76 µM | 2.28 µM | 7.03 | 4.01 µM | 29.8 µM | 2.09 µM | 4.85 µM
14 | O=c1nc2sc3ccccc3c(=O)n2[nH]1 |  | > 100 µM |  | > 100 µM |  | > 100 µM |  | > 100 µM |  | > 100 µM |  | > 100 µM |  | > 100 µM |  | > 100 |  | > 100 µM |  | > 100 µM
15 | CC1(C)C(=O)OC(n2cc(F)c(=O)[nH]c2=O)C1=O (stereo not given) |  | > 100 µM |  | > 100 µM |  | > 100 µM |  | > 100 µM |  | > 100 µM |  | > 100 µM |  | > 100 µM |  | > 100 |  | > 100 µM |  | > 100 µM
